Experimental data as given in patent US10435394B2, “Plant growth-promotion agent and method for promoting plant growth” (RIKEN, priority 2014, dated 2019).

Columns and labels:
Format in all cases: in vivo
[1] = system: Arabidopsis seeds (Columbia); test: Plant growth promoting activity test using Arabidopsis, Experimental Method (2); conditions: 15, 30, 60 μM; for growth of aerial leaves: Day 26 of sprouting, FIGS. 15 and 16; for growth of aerial leaves (average leaf area per individual): Day 27 of sprouting, FIGS. 10 and 11; for plant growth promoting effects (state of sprouting): Day 22, FIGS. 6 and 7
Experimental: (§1) A ½ MS medium (agarose: 0.9%; sucrose: 1.5%; Murashige & Skoog plant culture medium×½ concentration) was prepared and autoclaved. Then, the test compounds were separately added thereto at 0 (DMSO alone), 15, 30, and 60 μM and solidified in a plastic petri dish. Arabidopsis seeds (Columbia) were sterilized with ethanol and sown to sprout, followed by observation of conditions of leaves and roots after sprouting. DMSO alone was added as a solvent for a control.

[2] = system: Arabidopsis seeds (Columbia); test: Plant growth promoting activity test using Arabidopsis, Experimental Method (1); conditions: for plant growth promoting effects (state of sprouting): 60 μM in 1/2 MS medium, Day 23, FIG. 1
Experimental: as §1, with “at” for “at 0 (DMSO alone), 15, 30, and”, “leaves, roots,” for “leaves”, “stems” for “roots”

Tomato seeds (Micro-Tom) = test: Plant growth promoting effects on tomato; conditions: 5, 15, 30 μM in 1/2 MS medium; Day 73 of sprouting; FIG. 17
Experimental: A ½ MS medium (agarose: 0.9%; sucrose: 1.5%; Murashige & Skoog plant culture medium×½ concentration) was prepared and autoclaved. Then, the compound 1 (PPZ) was added thereto at 0 (DMSO alone), 5, 15, and 30 μM and solidified in a plastic pot. Tomato seeds (Micro-Tom) were sterilized with hypochlorous acid and sown to sprout, followed by observation of conditions of leaves and stems after sprouting. DMSO alone was added as a solvent for a control.

rice (Nipponbare) = test: Plant growth promoting effects upon rice; conditions: 15 or 30 μM in water absorbed from the bottom of the pot from Day 7; Day 21 of sprouting; FIG. 18
Experimental: A plant pot containing rice culture soil was prepared and rice (Nipponbare) was sown therein. Rice was raised with distilled water until Day 7 of sprouting. Rice was allowed to absorb distilled water containing the compound 1 (PPZ) at a concentration of 0 (DMSO alone), 15, or 30 μM from the bottom of the pot from Day 7 of sprouting. Water used was discarded every 7 days and replaced by fresh water. Rice was photographed and the plant length of rice was measured on Day 21 of sprouting or Day of 14 from the start of treatment.

[3] = system: Arabidopsis seeds (Columbia); test: Plant growth promoting activity test using Arabidopsis, Experimental Method (1); conditions: 5, 15, 30, 45, 60 μM

## c1cc2c(cc1CCN1CCOCC1)OCO2 [Compound 16]
[1]
  growth of aerial leaves: activity of promoting the growth of aerial leaves at the late growth stage
  growth of aerial leaves (average leaf area per individual): activity of promoting growth of aerial leaves at the late growth stage

## c1cc2c(cc1CN1CCSCC1)OCO2 [Compound 12]
[2]; not shown in figures
  elongation of stems and roots: excellent plant growth promoting effects for elongation of stems and roots

## COc1ccc(N2CCOCC2)cc1OC [Compound 15]
[1]
  plant growth promoting effects (state of sprouting): weak plant growth promoting effects

## COc1cc(CN2CCOCC2)cc(OC)c1OC [Compound 13]
[1]
  plant growth promoting effects (state of sprouting): weak plant growth promoting effects

## COc1ccc(CN2CCOCC2)cc1OC [Compound 10]
[2]; not shown in figures
  elongation of the main root: excellent plant growth promoting effects for elongation of the main root

## O=S1(=O)CCN(Cc2ccc3c(c2)OCO3)CC1 [Compound 21]
[1]
  growth of aerial leaves: activity of promoting the growth of aerial leaves at the late growth stage

## c1cc2c(cc1CN1CCOCC1)OCO2 [Compound 4]
[1]
  growth of aerial leaves: activity of promoting the growth of aerial leaves at the late growth stage

## c1cc2c(cc1CN1CCNCC1)OCO2 [Compound 1, 1-piperonylpiperazine]
[1]
  growth of aerial leaves: activity of promoting the growth of aerial leaves at the late growth stage
  growth of aerial leaves (average leaf area per individual): activity of promoting growth of aerial leaves at the late growth stage
Tomato seeds (Micro-Tom)
  growth of aerial leaves and stems of tomato: activity of promoting the growth of aerial leaves and stems of tomato
Rice (Nipponbare)
  growth of aerial leaves and stems of rice (plant length): activity of promoting the growth of aerial leaves and stems of rice
[3]; Day 13 of sprouting, constant light irradiation, FIG. 2
  development/growth of lateral roots: activity of promoting development/growth of lateral roots in the early growth stage
[3]; Day 21 of sprouting, FIG. 3
  growth of aerial leaves and petioles: activity of promoting growth of aerial leaves and petioles in the late growth stage
[3]; Day 35 of sprouting, FIG. 4
  branching: activity of promoting branching
[3]; sodium chloride 125 mM, Day 21 of sprouting, FIG. 5
  salt tolerance: action of enhancing salt tolerance

## COCCN(C)Cc1ccc2c(c1)OCO2 [Compound 22]
[1]
  growth of aerial leaves: activity of promoting the growth of aerial leaves at the late growth stage

## c1ncn(Cc2ccc3c(c2)OCO3)n1 [Compound 6]
[2]
  plant growth promoting effects (state of sprouting): decreased plant growth promoting activity and/or growth inhibition

## CN1CCN(Cc2ccc3c(c2)OCO3)CC1 [Compound 11]
[2]; not shown in figures
  elongation of stems and roots: excellent plant growth promoting effects for elongation of stems and roots

## c1cn(Cc2ccc3c(c2)OCO3)nn1 [Compound 7]
[2]
  plant growth promoting effects (state of sprouting): decreased plant growth promoting activity and/or growth inhibition

## c1cc2c(cc1CN1CCN(Cc3ccc4c(c3)OCO4)CC1)OCO2 [Compound 2, 1,4-dipiperonylpiperazine]
[2]
  plant growth promoting effects (state of sprouting): decreased plant growth promoting activity and/or growth inhibition
